# How the values were obtained:
# Cyperus iria = test: Preemergence weed control under flooded paddy conditions, CYPIR (Rice Flatsedge); type: in vivo; conditions: flooded paddy, rated three to four weeks after treatment; as to herbicidal effect rating, CYPIR: meaning of each grade not given here
# [1] = system: Echinochloa oryzoides (Ard.) Fritsch.; test: Preemergence weed control under flooded paddy conditions, ECHORC (Watergrass (Calif.)); type: in vivo; conditions: flooded paddy, rated three to four weeks after treatment; as to herbicidal effect rating, ECHORC: meaning of each grade not given here
# [2] = system: Oryza sativa, (L.) Tebonnet; test: Rice tolerance to post-transplant applications under flooded paddy conditions (Example 187), ORYSAT (Rice, Tebonnet); conditions: rated three to four weeks after treatment; as to herbicidal effect rating ORYSAT: meaning of each grade not given here
# [3] = system: Cyperus serotinus, Rottb.; test: Preemergence weed control under flooded paddy conditions, CYPSE (Flatsedge); type: in vivo; conditions: rated three to four weeks after treatment; as to herbicidal effect rating, CYPSE: meaning of each grade not given here
# [4] = system: Monochoria vaginalis, Presl.; test: Preemergence weed control under flooded paddy conditions, MOOVA (Monochoria); type: in vivo; conditions: flooded paddy, rated three to four weeks after treatment; as to herbicidal effect rating, MOOVA: meaning of each grade not given here
# Sagittaria pygmaea, L. = test: Preemergence weed control under flooded paddy conditions, SAGPY (Arrowhead (Pygmaea)); type: in vivo; conditions: flooded paddy, rated three to four weeks after treatment; as to herbicidal effect rating, SAGPY: meaning of each grade not given here
# [5] = 0.0313 kg/ha, preemergence weeds
# [6] = 0.0625 kg/ha, preemergence weeds
# [7] = 0.1250 kg/ha, preemergence weeds
# [8] = 0.2500 kg/ha, preemergence weeds
# [9] = Rate 0.0313 kg/ha, preemergence
# [10] = Rate 0.0625 kg/ha, preemergence
# [11] = Rate 0.2500 kg/ha, preemergence
# [12] = Rate 0.1250 kg/ha, preemergence
# [13] = Rate 0.0320 kg/ha, preemergence
# [14] = Rate 0.0620 kg/ha, preemergence
# [15] = Rate 0.5000 kg/ha, preemergence
smiles,measurement,setting,value
"Cn1c(C(F)(F)F)cc(=O)n(-c2ccc3snc(COCCCl)c3c2)c1=O [Example 198, 3-{3-[(2-Chloroethoxy)methyl]-1,2-benzisothiazol-5-yl}-1-methyl-6-(trifluoromethyl)-2,4(1H,3H)-pyrimidinedione]","herbicidal effect rating, CYPIR",Cyperus iria; [5],0.0
same,"herbicidal effect rating, CYPIR",Cyperus iria; [6],2.0
same,"herbicidal effect rating, CYPIR",Cyperus iria; [7],4.0
same,"herbicidal effect rating, CYPIR",Cyperus iria; [8],7.0
same,"herbicidal effect rating, ECHORC",[1]; [5],4.0
same,"herbicidal effect rating, ECHORC",[1]; [6],6.0
same,"herbicidal effect rating, ECHORC",[1]; [7],9.0
same,"herbicidal effect rating, ECHORC",[1]; [8],9.0
same,"herbicidal effect rating, ORYSAT (rice tolerance)",[2]; 0.0313 kg/ha,4.0
same,"herbicidal effect rating, ORYSAT (rice tolerance)",[2]; 0.0625 kg/ha,7.0
same,"herbicidal effect rating, ORYSAT (rice tolerance)",[2]; 0.1250 kg/ha,8.0
same,"herbicidal effect rating, ORYSAT (rice tolerance)",[2]; 0.2500 kg/ha,9.0
same,"herbicidal effect rating, CYPSE",[3]; [5],0.0
same,"herbicidal effect rating, CYPSE",[3]; [6],2.0
same,"herbicidal effect rating, CYPSE",[3]; [7],4.0
same,"herbicidal effect rating, CYPSE",[3]; [8],8.0
same,"herbicidal effect rating, MOOVA",[4]; [5],9.0
same,"herbicidal effect rating, MOOVA",[4]; [6],9.0
same,"herbicidal effect rating, MOOVA",[4]; [7],9.0
same,"herbicidal effect rating, MOOVA",[4]; [8],9.0
same,"herbicidal effect rating, SAGPY","Sagittaria pygmaea, L.; [5]",0.0
same,"herbicidal effect rating, SAGPY","Sagittaria pygmaea, L.; [6]",0.0
same,"herbicidal effect rating, SAGPY","Sagittaria pygmaea, L.; [7]",2.0
same,"herbicidal effect rating, SAGPY","Sagittaria pygmaea, L.; [8]",4.0
"CC(C)=CCOCc1nsc2ccc(-n3c(=O)cc(C(F)(F)F)n(C)c3=O)cc12 [Example 210, 1-Methyl-3-{3-[(3-methyl-2-butenyloxy)methyl]-1,2-benzisothiazol-5-yl}-6-(trifluoromethyl)-2,4(1H,3H)-pyrimidinedione]",CYPIR herbicidal effect rating,Cyperus iria; [9],2.0
same,CYPIR herbicidal effect rating,Cyperus iria; [10],7.0
same,CYPIR herbicidal effect rating,Cyperus iria; [11],7.0
same,ECHORC herbicidal effect rating,[1]; [9],9.0
same,ECHORC herbicidal effect rating,[1]; [10],9.0
same,ECHORC herbicidal effect rating,[1]; [12],9.0
same,ECHORC herbicidal effect rating,[1]; [11],9.0
same,ORYSAT herbicidal effect rating,[2]; Rate 0.0313 kg/ha,3.0
same,ORYSAT herbicidal effect rating,[2]; Rate 0.0625 kg/ha,4.0
same,ORYSAT herbicidal effect rating,[2]; Rate 0.1250 kg/ha,6.0
same,ORYSAT herbicidal effect rating,[2]; Rate 0.2500 kg/ha,7.0
same,CYPSE herbicidal effect rating,[3]; [9],0.0
same,CYPSE herbicidal effect rating,[3]; [10],0.0
same,CYPSE herbicidal effect rating,[3]; [12],0.0
same,CYPSE herbicidal effect rating,[3]; [11],0.0
same,MOOVA herbicidal effect rating,[4]; [9],9.0
same,MOOVA herbicidal effect rating,[4]; [10],9.0
same,MOOVA herbicidal effect rating,[4]; [12],9.0
same,MOOVA herbicidal effect rating,[4]; [11],9.0
same,SAGPY herbicidal effect rating,"Sagittaria pygmaea, L.; [9]",0.0
same,SAGPY herbicidal effect rating,"Sagittaria pygmaea, L.; [10]",0.0
same,SAGPY herbicidal effect rating,"Sagittaria pygmaea, L.; [12]",0.0
same,SAGPY herbicidal effect rating,"Sagittaria pygmaea, L.; [11]",0.0
"CCCCCCCOC(=O)c1nsc2ccc(-n3c(=O)cc(C(F)(F)F)n(C)c3=O)cc12 [Example 388, 1,2-Benzisothiazole-3-carboxylic acid, 5-[3,6-dihydro-3-methyl-2,6-dioxo-4-(trifluoromethyl)-1(2H)-pyrimidinyl]-, heptyl ester]","herbicidal effect rating, CYPIR",Cyperus iria; [13],4.0
same,"herbicidal effect rating, CYPIR",Cyperus iria; [14],7.0
same,"herbicidal effect rating, CYPIR",Cyperus iria; [12],7.0
same,"herbicidal effect rating, CYPIR",Cyperus iria; [11],9.0
same,"herbicidal effect rating, ECHORC",[1]; [13],0.0
same,"herbicidal effect rating, ECHORC",[1]; [14],2.0
same,"herbicidal effect rating, ECHORC",[1]; [12],5.0
same,"herbicidal effect rating, ECHORC",[1]; [11],6.0
same,herbicidal effect rating ORYSAT,[2]; Rate 0.0320 kg/ha,3.0
same,herbicidal effect rating ORYSAT,[2]; Rate 0.0620 kg/ha,4.0
same,herbicidal effect rating ORYSAT,[2]; Rate 0.1250 kg/ha,4.0
same,herbicidal effect rating ORYSAT,[2]; Rate 0.2500 kg/ha,6.0
same,"herbicidal effect rating, CYPSE",[3]; [13],6.0
same,"herbicidal effect rating, CYPSE",[3]; [11],6.0
same,"herbicidal effect rating, MOOVA",[4]; [13],9.0
same,"herbicidal effect rating, MOOVA",[4]; [14],9.0
same,"herbicidal effect rating, MOOVA",[4]; [12],9.0
same,"herbicidal effect rating, MOOVA",[4]; [11],9.0
same,"herbicidal effect rating, SAGPY","Sagittaria pygmaea, L.; [13]",3.0
same,"herbicidal effect rating, SAGPY","Sagittaria pygmaea, L.; [14]",4.0
same,"herbicidal effect rating, SAGPY","Sagittaria pygmaea, L.; [12]",4.0
same,"herbicidal effect rating, SAGPY","Sagittaria pygmaea, L.; [11]",7.0
"CC(=O)Nc1nnc(S(=O)(=O)NC(=O)COc2ccc(C)cc2-c2nsc3ccc(-n4c(=O)cc(C(F)(F)F)n(C)c4=O)cc23)s1 [Example 269, Acetamide, N-[(5-acetamido-1,3,4-thiadiazol-2-yl)sulfonyl]-2-{{2-{5-[3,6-dihydro-3-methyl-2,6-dioxo-4-(trifluoromethyl)-1(2H)-pyrimidinyl]-1,2-benzisothiazol-3-yl}-p-tolyl}oxy}-]",CYPIR herbicidal effect rating,Cyperus iria; [11],0.0
same,CYPIR herbicidal effect rating,Cyperus iria; [15],0.0
same,ECHORC herbicidal effect rating,[1]; [11],0.0
same,ECHORC herbicidal effect rating,[1]; [15],4.0
same,ORYSAT herbicidal effect rating,[2]; Rate 0.2500 kg/ha,0.0
same,ORYSAT herbicidal effect rating,[2]; Rate 0.5000 kg/ha,0.0
same,CYPSE herbicidal effect rating,[3]; [11],0.0
same,CYPSE herbicidal effect rating,[3]; [15],0.0
same,MOOVA herbicidal effect rating,[4]; [11],0.0
same,MOOVA herbicidal effect rating,[4]; [15],9.0
same,SAGPY herbicidal effect rating,"Sagittaria pygmaea, L.; [11]",0.0
same,SAGPY herbicidal effect rating,"Sagittaria pygmaea, L.; [15]",0.0
"COP(=O)(Cc1nsc2ccc(-n3c(=O)cc(C(F)(F)F)n(C)c3=O)cc12)OC [Example 262, 1,2-Benzisothiazole-3-methanephosphonic acid, 5-[3,6-dihydro-3-methyl-2,6-dioxo-4-(trifluoromethyl)-1(2H)-pyrimidinyl]-, dimethyl ester]",CYPIR herbicidal effect rating,Cyperus iria; [14],0.0
same,CYPIR herbicidal effect rating,Cyperus iria; [12],6.0
same,CYPIR herbicidal effect rating,Cyperus iria; [11],9.0
same,ECHORC herbicidal effect rating,[1]; [14],0.0
same,ECHORC herbicidal effect rating,[1]; [12],0.0
same,ECHORC herbicidal effect rating,[1]; [11],3.0
same,ORYSAT herbicidal effect rating,[2]; Rate 0.0620 kg/ha,0.0
same,ORYSAT herbicidal effect rating,[2]; Rate 0.1250 kg/ha,0.0
same,ORYSAT herbicidal effect rating,[2]; Rate 0.2500 kg/ha,3.0
same,CYPSE herbicidal effect rating,[3]; [14],0.0
same,CYPSE herbicidal effect rating,[3]; [12],0.0
same,CYPSE herbicidal effect rating,[3]; [11],0.0
same,MOOVA herbicidal effect rating,[4]; [14],0.0
same,MOOVA herbicidal effect rating,[4]; [12],9.0
same,MOOVA herbicidal effect rating,[4]; [11],9.0
same,SAGPY herbicidal effect rating,"Sagittaria pygmaea, L.; [14]",0.0
same,SAGPY herbicidal effect rating,"Sagittaria pygmaea, L.; [12]",0.0
same,SAGPY herbicidal effect rating,"Sagittaria pygmaea, L.; [11]",0.0
"C#CCOC(=O)COc1c(-c2nsc3ccc(-n4c(=O)cc(C(F)(F)F)n(C)c4=O)cc23)ccc(C)c1C [Example 280, Acetic acid, {{6-[5-[3,6-dihydro-3-methyl-2,6-dioxo-4-(trifluoromethyl)-1(2H)-pyrimidinyl]-1,2-benzisothiazol-3-yl}-2,3-xylyl}oxy}-, 2-propynyl ester]",CYPIR herbicidal effect rating,Cyperus iria; [13],2.0
same,CYPIR herbicidal effect rating,Cyperus iria; [14],6.0
same,CYPIR herbicidal effect rating,Cyperus iria; [12],8.0
same,CYPIR herbicidal effect rating,Cyperus iria; [11],9.0
same,CYPIR herbicidal effect rating,Cyperus iria; [15],9.0
same,ECHORC herbicidal effect rating,[1]; [13],0.0
same,ECHORC herbicidal effect rating,[1]; [14],5.7
same,ECHORC herbicidal effect rating,[1]; [12],7.6
same,ECHORC herbicidal effect rating,[1]; [11],9.0
same,ECHORC herbicidal effect rating,[1]; [15],9.0
same,ORYSAT herbicidal effect rating,[2]; Rate 0.0320 kg/ha,3.0
same,ORYSAT herbicidal effect rating,[2]; Rate 0.0620 kg/ha,3.0
same,ORYSAT herbicidal effect rating,[2]; Rate 0.1250 kg/ha,7.0
same,ORYSAT herbicidal effect rating,[2]; Rate 0.2500 kg/ha,8.0
same,ORYSAT herbicidal effect rating,[2]; Rate 0.5000 kg/ha,9.0
same,CYPSE herbicidal effect rating,[3]; [13],0.0
same,CYPSE herbicidal effect rating,[3]; [14],0.0
same,CYPSE herbicidal effect rating,[3]; [12],0.0
same,CYPSE herbicidal effect rating,[3]; [11],2.0
same,CYPSE herbicidal effect rating,[3]; [15],3.0
same,MOOVA herbicidal effect rating,[4]; [13],9.0
same,MOOVA herbicidal effect rating,[4]; [14],9.0
same,MOOVA herbicidal effect rating,[4]; [12],9.0
same,MOOVA herbicidal effect rating,[4]; [11],9.0
same,MOOVA herbicidal effect rating,[4]; [15],9.0
same,SAGPY herbicidal effect rating,"Sagittaria pygmaea, L.; [13]",0.0
same,SAGPY herbicidal effect rating,"Sagittaria pygmaea, L.; [14]",0.0
same,SAGPY herbicidal effect rating,"Sagittaria pygmaea, L.; [12]",2.0
same,SAGPY herbicidal effect rating,"Sagittaria pygmaea, L.; [11]",9.0
same,SAGPY herbicidal effect rating,"Sagittaria pygmaea, L.; [15]",9.0
